Results published in patent US9695133B2, “Quinazolinone-based oncogenic-RAS-selective lethal compounds and their use” (THE TRUSTEES OF COLUMBIA UNIVERSITY IN THE CITY OF NEW YORK, priority 2012, dated 2017).
Read-outs that look alike come from different tables or passages of the source.

How the values were obtained:
[1] = system: BJeH, BJeHLT, BJeLR and DRD cells; assay type: cell-based; conditions: for RSL phenotype (oncogenic-RAS-selective lethality): four BJ-derived cell lines, with and without HRAS G12V; for Selectivity score: EC50 (BJeH)/EC50 (BJeLR)
[2] = system: HT-1080 cells; assay: Cell death rescue by ALOX and COX inhibitors in HT-1080 cells; assay type: cell-based, human; conditions: for suppression of cell death induced by RSL compounds / suppression of cell death induced by non-RSL compounds: HT-1080 cells, 10 μM BAI or 50 μM ZIL, 24 hours; for suppression of erastin-induced cell death: inhibitor concentrations of Table 2
Experimental: HT-1080 cells were seeded in 384-well plates, treated with the indicated amount of compounds with or without 10 μM of BAI or 50 μM of ZIL for 24 hours. The percent growth inhibition was determined using alamar blue.
Lethal compounds were added to HT-1080 cells in the presence or absence of ALOX or COX inhibitors in a 2-fold dilution series. The concentrations of the inhibitors are listed along with vendor information in Table 2. Cell viability was determined using alamar blue and percent growth inhibition calculated as described above.

[3] = system: BJeLR cells; assay: RSL testing: growth inhibition (alamar blue) in BJeLR cells; assay type: cell-based; conditions: Homo sapiens
Experimental: Cell viability was determined using alamar blue and percent growth inhibition computed as described previously (Id.).

[4] = system: GPX4; assay: GPX4 knockdown (siGPX4) in HT-1080 cells
[5] = system: GFP-ALOX5; assay: GFP-ALOX5 translocation in HT-1080 cells; assay type: cell-based, human
Experimental: HT-1080 cells stably expressing GFPALOX5 were treated with the indicated compounds under the conditions detailed in FIG. 13b. […] Note that digioxin (DIG) did translocate GFP-ALOX5 to the perinuclear membrane region in a small portion of the cell population (arrow). Digioxin is known to increase cellular calcium concentration that can translocate GFP-ALOX5, similarly to ionomycin. Scale bars, 60 μm.
(§1) A cDNA of ALOX5 (GeneBank ID: BC130332.1) was cloned into a pBabe-puro vector to express GFP fused ALOX5 (N-terminal GFP fusion) in cells. The plasmid was transfected into PLAT-GP cells (Cell Biolabs Inc., cat # RV-103, San Diego, Calif.) along with a pVSV-G helper plasmid to produce retrovirus harboring the expression plasmid. 0.2 million target cells (BJeH, BJeHLT, BJeLR or HT-1080 cells) were seeded in 10 cm tissue culture dishes and incubated in the tissue culture incubator for 1 day. A frozen stock of retrovirus solution was thawed at 37° C. for 2 minutes, and polybrene (Sigma, cat. # H9268) was added at a final concentration of 8 μg/mL. Culture medium was replaced with virus/polybrene mix and the culture dish was incubated for two hours with rocking every 30 minutes. After 2 hours, 10 mL of growth media was added to culture dish, and the culture was incubated further for 2 days. Cell lines stably expressing GFP-ALOX5 protein were selected using 1.5 μg/mL puromycin and used for the GFP-ALOX5 translocation assay.
Next, GFP-ALOX5-expressing HT-1080 cells were treated with these non-RSL and RSL compounds and changes in the location of GFP-ALOX5 were monitored as a measure of ALOX protein activation. […] Digoxin is known to elevate intracellular calcium (McGarry et al., 1993), which is likely to cause the translocation of GFP-ALOX5, similar to ionomycin. Note that ionomycin and digoxin are not RSL compounds and induce translocation of GFP-ALOX5 non-specifically in the BJ-derived cell lines (FIGS. 7 and 13). The results highlight the importance of selective ALOX activation for the induction of the RSL phenotype.

[6] = system: HT-1080 cells; conditions: 24 hours
[7] = system: U-2 OS cells; assay: U-2 OS cell viability (alamar blue) with TBHP or NAC; assay type: cell-based
[8] = system: GFP-ALOX5; assay: GFP-ALOX5 translocation in BJ-derived cell lines; assay type: cell-based, human
Experimental: as §1
ALOX5 is one of the six human ALOX genes and plays a critical role in leukotriene synthesis. In the basal state, the ALOX5 protein remains in the nucleus; however, upon activation, it translocates to the nuclear membrane (Chen et al., 2001). […] Second, calcium chelators were not effective in suppressing erastin-induced cell death (Wolpaw et al., 2011).

[9] = cell line not in head, footnote names EC50 (BJeLR), read-out: EC50

Compound: CC(C)Oc1ccc(C=O)cc1-n1c(CN2CCN(C(=O)COc3ccc(Cl)cc3)CC2)nc2ccccc2c1=O [AE, 3-(2-((4-(2-(4-chlorophenoxy)ethanoyl)piperazin-1-yl)methyl)-4-oxoquinazolin-3(4H)-yl)-4-isopropoxybenzaldehyde]
- RSL phenotype (oncogenic-RAS-selective lethality) [1]: retained the RSL phenotype

Compound: Nc1nc[nH]n1 [ATZ]
- RSL phenotype (oncogenic-RAS-selective lethality) [1]: none of the other anti-oxidant targeting compounds displayed an RSL phenotype

Compound: O=c1cc(-c2ccccc2)oc2cc(O)c(O)c(O)c12 [BAI, Baicalein]
- suppression of cell death induced by RSL compounds [2]: strongly suppressed cell death induced by all RSL compounds
- suppression of cell death induced by non-RSL compounds [2]: not able to suppress cell death induced by eleven non-RSL compounds
- suppression of erastin-induced cell death [2]: strongly suppressed erastin-induced cell death

Compound: N#CC(=Cc1ccc(O)c(O)c1)C(=O)OCC=Cc1ccccc1 [CDC, cinnamyl-3,4-dihydroxy-a-cyanocinnamate]
- suppression of erastin-induced cell death [2]: strongly suppressed erastin-induced cell death

Compound: CCN(CC)Cc1ccc(OC(C)C)c(-n2c(CN3CCN(C(=O)COc4ccc(Cl)cc4)CC3)nc3ccccc3c2=O)c1 [Compound 15]
- Selectivity score [1]: 4.1
- EC50 ([3]; BJeLR, read-out: EC50 (BJeLR)): 1680 nM

Compound: CC(C)Oc1ccc(N2CCN(C)CC2)cc1-n1c(CN2CCN(C(=O)COc3ccc(Cl)cc3)CC2)nc2ccccc2c1=O [Compound 17]
- Selectivity score [1]: 7.3
- EC50 ([3]; BJeLR, read-out: EC50 (BJeLR)): 900 nM

Compound: COCCN(CCOC)Cc1ccc(OC(C)C)c(-n2c(CN3CCN(C(=O)COc4ccc(Cl)cc4)CC3)nc3ccccc3c2=O)c1 [Compound 18]
- Selectivity score [1]: 5.9
- EC50 ([3]; BJeLR, read-out: EC50 (BJeLR)): 140 nM

Compound: CC(C)Oc1ccc(CN(C)CCC#N)cc1-n1c(CN2CCN(C(=O)COc3ccc(Cl)cc3)CC2)nc2ccccc2c1=O [Compound 19]
- Selectivity score [1]: 5.1
- EC50 ([3]; BJeLR, read-out: EC50 (BJeLR)): 260 nM

Compound: CC(C)Oc1ccc(CN(C)CCO)cc1-n1c(CN2CCN(C(=O)COc3ccc(Cl)cc3)CC2)nc2ccccc2c1=O [Compound 21]
- Selectivity score [1]: 3.7
- EC50 ([3]; BJeLR, read-out: EC50 (BJeLR)): 360 nM

Compound: CC(C)Oc1ccc(CNCCCN(C)C)cc1-n1c(CN2CCN(C(=O)COc3ccc(Cl)cc3)CC2)nc2ccccc2c1=O [Compound 22]
- Selectivity score [1]: 3.3
- EC50 ([3]; BJeLR, read-out: EC50 (BJeLR)): 2300 nM

Compound: CC(C)Oc1ccc(CN2CCN(CCO)CC2)cc1-n1c(CN2CCN(C(=O)COc3ccc(Cl)cc3)CC2)nc2ccccc2c1=O [Compound 23]
- Selectivity score [1]: 2.8
- EC50 ([3]; BJeLR, read-out: EC50 (BJeLR)): 1200 nM

Compound: CC(C)Oc1ccc(CNCCOCCO)cc1-n1c(CN2CCN(C(=O)COc3ccc(Cl)cc3)CC2)nc2ccccc2c1=O [Compound 24]
- Selectivity score [1]: 2.5
- EC50 ([3]; BJeLR, read-out: EC50 (BJeLR)): 2100 nM

Compound: CC(C)Oc1ccc(CN2CCOCC2)cc1-n1c(CN2CCN(C(=O)COc3ccc(Cl)cc3)CC2)nc2ccccc2c1=O [Compound 40, 2-((4-(2-(4-chlorophenoxy)ethanoyl)piperazin-1-yl)methyl)-3-(2-isopropoxy-5-(morpholinomethyl)phenyl)quinazolin-4(3H)-one]
- EC50 ([3]; BJeLR, read-out: EC50 (BJeLR)): 130 nM
- EC50 [3, 9]: 130 nM

Compound: CC(C)Oc1c(CN2CCOCC2)cccc1-n1c(CN2CCN(C(=O)COc3ccc(Cl)cc3)CC2)nc2ccccc2c1=O [Compound 51]
- EC50 [3, 9]: 1170 nM

Compound: N#CC(=C(/N)Sc1ccccc1N)/C(C#N)=C(\N)Sc1ccccc1N [Compound U0126]
- rescue of siGPX4-induced cell death [4]: rescued

Compound: O=[N+]([O-])c1ccc(Cl)c(Cl)c1 [DCNB]
- RSL phenotype (oncogenic-RAS-selective lethality) [1]: none of the other anti-oxidant targeting compounds displayed an RSL phenotype

Compound: CCN(CC)C(=S)S [DETC]
- RSL phenotype (oncogenic-RAS-selective lethality) [1]: none of the other anti-oxidant targeting compounds displayed an RSL phenotype

Compound: CN(C)C(=O)/N=N/C(=O)N(C)C [DIA]
- RSL phenotype (oncogenic-RAS-selective lethality) [1]: none of the other anti-oxidant targeting compounds displayed an RSL phenotype

Compound: CCc1ccc(/C=C2\SC(=S)N(CCC(=O)NCCCN3CCOCC3)C2=O)cc1 [DPI2]
- GFP-ALOX5 translocation to the nuclear membrane [5]: translocated GFP-ALOX5 to the nuclear membrane

Compound: CC(C)c1onc(C(=O)N2CCN(C(c3ccccc3)c3ccccc3)CC2)c1[N+](=O)[O-] [DPI10]
- GFP-ALOX5 translocation to the nuclear membrane [5]: translocated GFP-ALOX5 to the nuclear membrane

Compound: Nc1nc(CCl)nc(Nc2ccc3ccccc3c2)n1 [DPI17]
- GFP-ALOX5 translocation to the nuclear membrane [5]: translocated GFP-ALOX5 to the nuclear membrane

Compound: N[C@@H](CCC(=O)N[C@@H](CS)C(=O)NCC(=O)O)C(=O)O [GSH, reduced glutathione]
- rescue from erastin lethality by GSH supplementation ([6]; 1 mM GSH): rescued cells from erastin lethality

Compound: COc1ccc2c(c1)c(CC(=O)O)c(C)n2C(=O)c1ccc(Cl)cc1 [Indomethacin]
- suppression of erastin-induced cell death [2]: only minimally effective in suppressing erastin lethality

Compound: CC(=O)N[C@@H](CS)C(=O)O [NAC, N-acetyl-cysteine]
- rescue from erastin lethality by NAC supplementation [7]: rescued cells from erastin lethality

Compound: c1ccc2c(c1)SCc1c-2[nH]c2ccccc12 [PD-146176]
- suppression of erastin-induced cell death [2]: strongly suppressed erastin-induced cell death

Compound: CC(C)Oc1ccncc1-n1c(CN2CCN(C(=O)COc3ccc(Cl)cc3)CC2)nc2ccccc2c1=O [PYR, 2-((4-(2-(4-chlorophenoxy)ethanoyl)piperazin-1-yl)methyl)-3-(4-isopropoxypyridin-3-yl)quinazolin-4(3H)-one]
- RSL phenotype (oncogenic-RAS-selective lethality) [1]: did not display lethality

Compound: CN[C@@H]1C[C@H]2O[C@@](C)([C@@H]1OC)n1c3ccccc3c3c4c(c5c6ccccc6n2c5c31)C(=O)NC4 [STS, Staurosporine]
- GFP-ALOX5 translocation to the nuclear membrane [5]: did not

Compound: CC(c1cc2ccccc2s1)N(O)C(N)=O (stereo not drawn) [Zileuton]
- rescue of siGPX4-induced cell death ([4]; 10 μM U0126, 100 μM Vit. E, 100 μM DFOM, 50 μM ZIL): rescued
- suppression of cell death induced by RSL compounds [2]: strongly suppressed cell death induced by all RSL compounds
- suppression of cell death induced by non-RSL compounds [2]: not able to suppress cell death induced by eleven non-RSL compounds
- suppression of erastin-induced cell death [2]: strongly suppressed erastin-induced cell death

Compound: CC(C)Oc1ccccc1-n1c(CN2CCN(C(=O)c3ccc(Cl)cc3)CC2)nc2ccccc2c1=O [dMK, 2-((4-(4-chlorophenylcarbonyl)piperazin-1-yl)methyl)-3-(2-isopropoxyphenyl)quinazolin-4(3H)-one]
- RSL phenotype (oncogenic-RAS-selective lethality) [1]: did not display lethality

Compound: C[C@H]1O[C@@H](O[C@H]2[C@@H](O)C[C@H](O[C@H]3[C@@H](O)C[C@H](O[C@H]4CC[C@@]5(C)[C@H](CC[C@@H]6[C@@H]5C[C@@H](O)[C@]5(C)[C@@H](C7=CC(=O)OC7)CC[C@]65O)C4)O[C@@H]3C)O[C@@H]2C)C[C@H](O)[C@@H]1O [digoxin, Digoxin]
- GFP-ALOX5 translocation to the nuclear membrane [5]: induced GFP-ALOX5 translocation

Compound: C[C@H](CCC(=O)O)C[C@H](C)C[C@H](C)C(=O)/C=C(\O)[C@H](C)C[C@H](C)C/C=C/[C@@H](C)[C@@H](O)[C@@H](C)[C@@H](O)C[C@@H]1CC[C@@](C)([C@H]2CC[C@@](C)([C@@H](C)O)O2)O1 [ionomycin]
- GFP-ALOX5 translocation to the nuclear membrane [8]: induced localization of GFP-ALOX5 to the nuclear membrane in all BJ-derived cell lines

Compound: Vitamin E [Vit. E]
- rescue of siGPX4-induced cell death [4]: rescued

Compound: lysophosphatidyl choline [lyso-PC]
- effect of lyso-PC on erastin-induced cell death [6]: modestly sensitized cells to erastin-induced cell death
- differential cytotoxicity between BJeH and BJeLR ([1]; lyso-PC alone, 24 hours): did not show differential cytotoxicity
